Source: patent US8916583B2, “Therapeutic compositions for intranasal administration of zolpidem” (Renascence Therapeutics Limited, priority 2012, dated 2014)
Counter-ions that a name gives are not always drawn.

How the values were obtained:
toad palate = assay: Nasal ciliotoxicity evaluation, in-situ toad palate model; type: in vivo; design: key to Ciliotoxicity: no effect: cilia on the mucosa was intact, dense and beating actively; mild: less than 25% ciliostasis; moderate: cilia was disarranged or only partial cilia left; all cilia lost and apical cell border was severe deformed; settings: 0.2 ml, 4 h, light microscope 400×
Method: The nasal ciliotoxicity of zolpidem tartrate, solubilizing agents and several nasal solution formulations were investigated using an in-situ toad palate model. Briefly, 0.2 ml test formulations were administrated on a toad palate. […] The mucocilia was examined with a light microscope at enlargements of 400× (n=3˜6). Saline and a typical nasal mucociliary toxic agent—sodium deoxycholatee—were used as a negative and positive control, respectively. Study protocol was illustrated in Table 11, and the degree of ciliotoxicity caused by the test formulations was coarse classified as follows: “no effect”: cilia on the mucosa was intact, dense and beating actively; “mild”: less than 25% ciliostasis; “moderate”: cilia was disarranged or only partial cilia left; “severe”: all cilia lost and apical cell border was severe deformed.

[1] = cited from earlier work
[2] = Pharmacokinetic study in beagle dogs; settings: for CL/F / Rel F(5 mg oral) / Tmax: beagle dogs; for Rel F(5 mg oral): relative to 5 mg oral; for AUC(0-inf) / AUC(0-t) / Cmax / MRT / half-life / Tmax: both, beagle, dog, plasma
Method: Eight beagle dogs (4 male and 4 female) participated in the study. […] Water was given ad libitum throughout the study. Food was provided 4 hours post-dose. Blood samples were collected at pre-dose (0 min) and at 3, 6, 9, 12, 15, 20, 30, 45 minutes; and at 1, 1.5, 2, 3, 4, 6, 8, 24 hours post-dose. After plasma-separation process, the samples were analyzed by a validated LC-MS/MS method.

plasma proteins = settings: cited from earlier work
[3] = cited from earlier work; remark: listed apart in the source
[4] = intranasal administration (ZLP-B01), 1.25 mg/dog
[5] = intranasal administration (ZLP-B01), 2.5 mg/dog
[6] = intranasal administration (ZLP-B01), 5 mg/dog

For “sodium deoxycholate [1% sodium deoxycholate]”, the Ciliotoxicity (toad palate) was “severe” and the Optical microscopic observation (toad palate) was “no cilia on the mucosa”.

In the case of `Cc1ccc(-c2nc3ccc(C)cn3c2CC(=O)N(C)C)cc1` [Zolpidem tartrate], the aqueous solubility ([1]; at 20° C.) is listed as “about 23 mg/ml” and the “solubility in water” value ([1]; water) is listed as “slightly soluble”.

For `Cc1ccc(-c2nc3ccc(C)cn3c2CC(=O)N(C)C)cc1` [Zolpidem, N,N,6-trimethyl-2-(4-methylphenyl)-imidazo[1,2-a]pyridine-3-acetamide], the CL/F [2, 4] was 110 ± 41 L/h, the “Rel F(5 mg oral)” value [2, 4] was 167% and the CL/F [2, 5] was 144 ± 76 L/h. For the same molecule, the “Rel F(5 mg oral)” value [2, 5] was 145%, the CL/F [2, 6] was 181 ± 137 L/h and the “Rel F(5 mg oral)” value [2, 6] was 124%. The CL/F ([2]; oral administration (marketed tablet, Stilnox), 5 mg/dog) was 204 ± 96 L/h, the CL/F ([2]; oral administration (marketed tablet, Stilnox), 10 mg/dog) was 110 ± 69 L/h and the AUC(0-inf) ([2]; inhaled or intranasal, 1.25 mg) was 12.9 ± 5.2 ng·h/mL. It also gave an AUC(0-t) ([2]; inhaled or intranasal, 1.25 mg) of 12.8 ± 5.24 ng·h/mL, a Cmax ([2]; inhaled or intranasal, 1.25 mg) of 13 ± 6.36 ng/mL and an MRT ([2]; inhaled or intranasal, 1.25 mg) of 67.8 ± 10.8 min. The half-life ([2]; inhaled or intranasal, 1.25 mg) was 57 ± 10.8 min, the Tmax ([2]; inhaled or intranasal, 1.25 mg, intranasal administration (ZLP-B01), 1.25 mg/dog) was 8.4 ± 1.8 min and the AUC(0-inf) ([2]; inhaled or intranasal, 2.5 mg) was 22.4 ± 12.1 ng·h/mL. It also gave an AUC(0-t) ([2]; inhaled or intranasal, 2.5 mg) of 22.2 ± 12.2 ng·h/mL, a Cmax ([2]; inhaled or intranasal, 2.5 mg) of 22 ± 13.1 ng/mL and an MRT ([2]; inhaled or intranasal, 2.5 mg) of 74.4 ± 49.8 min. It also gave a half-life ([2]; inhaled or intranasal, 2.5 mg) of 43.8 ± 13.8 min, a Tmax ([2]; inhaled or intranasal, 2.5 mg, intranasal administration (ZLP-B01), 2.5 mg/dog) of 8.4 ± 4.2 min and an AUC(0-inf) ([2]; inhaled or intranasal, 5 mg) of 38 ± 18.5 ng·h/mL. The AUC(0-t) ([2]; inhaled or intranasal, 5 mg) was 38 ng·h/mL, the Cmax ([2]; inhaled or intranasal, 5 mg) was 33.3 ng/mL and the MRT ([2]; inhaled or intranasal, 5 mg) was 90 ± 19.8 min. The half-life ([2]; inhaled or intranasal, 5 mg) was 68.4 ± 11.4 min, the Tmax ([2]; inhaled or intranasal, 5 mg, intranasal administration (ZLP-B01), 5 mg/dog) was 12.6 min and the Tmax ([2]; inhaled or intranasal, 5 mg, range over dogs, intranasal administration, 5 mg/dog) was 3 to 15 min. For the same molecule, the AUC(0-inf) ([2]; po, 5 mg) was 30.7 ± 16.9 ng·h/mL, the AUC(0-t) ([2]; po, 5 mg) was 30.6 ng·h/mL and the Cmax ([2]; po, 5 mg) was 25.5 ng/mL. The MRT ([2]; po, 5 mg) was 100 ± 27.6 min, the half-life ([2]; po, 5 mg) was 57.6 ± 10.2 min and the Tmax ([2]; po, 5 mg, oral administration (marketed tablet, Stilnox), 5 mg/dog) was 41.4 min. The Tmax ([2]; po, 5 mg, range over dogs, oral administration, 5 mg/dog) was 19.8 to 120 min, the AUC(0-inf) ([2]; po, 10 mg) was 121 ± 64.6 ng·h/mL and the AUC(0-t) ([2]; po, 10 mg) was 120 ± 64.4 ng·h/mL. The Cmax ([2]; po, 10 mg) was 128 ± 59.7 ng/mL, the MRT ([2]; po, 10 mg) was 79.8 ± 18 min and the half-life ([2]; po, 10 mg) was 59.4 ± 12.6 min. For the same molecule, the Tmax ([2]; po, 10 mg, oral administration (marketed tablet, Stilnox), 10 mg/dog) was 25.8 ± 11.4 min, the “bound to plasma proteins” value (plasma proteins) was “about 92%” and the “time to peak plasma concentrations” value ([3]; after oral doses) was no more than 3 h. For the same molecule, the elimination half-life ([3]; in vivo) was “about 2.5 hours” and the absolute bioavailability ([3]; oral, first-pass metabolism) was “about 70%”.
